Measured values from US20210393636A1, “TREATMENT OF CNS AND DEVELOPMENTAL DISORDERS USING HIGH DOSE 5-FORMYL-(6S)-TETRAHYDROFOLATE” (priority 2019, published 2021).
Values belong to the compound of their own block, whether it stands above or below them.

Experiments:
[1] = Folate absorption in serum after single high-dose oral administration of different folates (Example 1)
Protocol: For this study, 4 mg/kg folate was administered as a single dose to 250-300 g male Wistar rats. […] For each form of folate 4 time points of 30 min, 1 h, 2 h and 4 h were evaluated. For each time point 2 rats were used. The folate form dissolved in 0.5 ml buffered saline was administered orally using a blunt needle attached to a 1 ml syringe. The rats were euthanized by CO2 inhalation.
Blood was drawn cardiac puncture, allowed to clot for 30 min, serum separated, diluted in equal volume of 4% ascorbate pH 7.2 and kept frozen at −20 C. Folate forms in the serum was determined by HPLC and the peaks were quantified by comparing to known standards as described below.
Folate standards (5-MTHF, FA, THF and Formyl-THF) and 13C-labeled stable isotope internal standards (13C5-5-MTHF, 13C5-FA and 13C-Formyl-THF) were obtained from Schircks Laboratories (Switzerland). Formic acid, ascorbic acid and dithiothreitol (DTT) were obtained from Fluka and Optima LC-MS grade methanol from Fisher Scientific. Stock standards for each folate metabolite and internal standards were prepared as 1 mmol/L solutions in water containing 2 mg/mL ascorbic acid and stored at −80° C. Microtiter plates used for were purchased from NUNC.
Liquid chromatography electrospray ionization mass spectrometry (LC-ESI-MS/MS) analysis of plasma 5-MTHF, FA, THF, Formyl-THF was performed on a Sciex 5500QTRAP mass spectrometer (Foster City, Calif., USA) coupled with a Shimadzu ultra-high pressure Nexera chromatograph system (Kyoto, Japan). The MS/MS experiments were performed under positive electrospray ionization (+ESI) with multiple-reaction monitoring (MRM) using a Turbolon Spray electrospray source operating at a voltage of 5.5 kV and desolvation temperature of 500° C. The calibration curve was prepared in water containing 2 mg/mL ascorbic acid over a range of 12.5-400 nmol/L for each folate analyte.
Sample preparation involved combining 50 µl of blank, standard, control or sample with 10μ1 62.5 mM dithiothreitol, 20 mg/ml ascorbic acid and 2.5 μM 13C5-5-MTHF, 13C5-FA, 13C-Formyl-THF in 1.5 mL Eppendorf tubes, mixed by vortex and incubated for 10 minutes at room temperature in the dark. Next, samples were deproteinized with 5 volumes of methanol containing 2 mg/ml of ascorbic acid and vortexed and centrifuged at 14800 rpm for 10 minutes. Supernatant was loaded in a 96-well microtiter plate for analysis. The samples were analyzed following injection of 10 μL of extract on a Synergi Hydro 4μ 150×3 mm with a 4×2 mm SecurityGuard column (Phenomenex, Calif., USA) maintained at 40° C. (Phenomenex) and eluted in a gradient with buffer A (100% water with 0.1% formic acid) and buffer B (100% Methanol with 0.1% formic acid). The flow rate was 0.5 mL/min, with a gradient over a total run time of 6 min: 0.0-2.0 min, 0-100% B; 2.5 min, 100% B; 2.6-6.0 min, 0% B.
Total analytical analysis, including column re-equilibration, was 6 minutes. Eluent flow from the column was diverted to waste at the beginning and end of each run and was only directed to the source for the period from 1.5-3.5 minutes. The LC-MS/MS data was acquired and processed using Analyst 1.5.2 software (Sciex).
Values reported include both D- and L-forms.

[2] = Total folates in serum 24 h after oral administration of folate forms (Example 2); assay type: in vivo, rats; parameters: Total Folates in Serum (total 5-MTHF D- and L- plus folic acid): unit not given here; conditions: for Total Folates in Serum (total 5-MTHF D- and L- plus folic acid): 4 mg/kg oral, 24 h
Protocol: (§1) This study evaluated the difference in folate absorption in non-pregnant rats, pregnant rats, pregnant rats injected with a control antibody, and pregnant rats injected with antibody to the folate receptor alpha. Eight (8) rats were assigned to each group for a total of thirty-two (32) rats. Two rats within each group were administered a single oral dose of PGA, 5-methyl-(6S)-THF, folinic acid or 5-formyl-(6S)-THF as a liquid solution and sacrificed at 24-hours to evaluate folate absorption patterns. The total amount of each form of folate administered to each rat was 4 mg/kg.
Serum was withdrawn immediately before the rat was sacrificed. For extraction of folate from serum, an aliquot of the serum was diluted in 3 volumes of phosphate buffer pH 5.5, placed in a boiling water bath for 10 min, cooled, the protein precipitate separated by centrifugation and the clear supernatant was assayed for folate concentration.

[3] = Tissue distribution of folates 24 h after oral administration of folate forms (Example 2); assay type: in vivo, rats; conditions: for Total 5-MTHF + PGA in Brain: derived from cortex and cerebellum
Protocol: as §1
Additional analyses were performed in various tissues of the pregnant and non-pregnant rats. For tissues other than serum, each tissue was collected, weighed and stored at −20 C. For the folate assay each tissue was suspended in 3 volumes of phosphate buffer containing 2% ascorbic acid pH 7.4 and homogenized using a polytron probe. An aliquot of this homogenate was diluted 10 fold in PO4 buffer PH 5.5 containing 0.2% ascorbic acid, in a glass tube, sealed and placed in a boiling water bath for 10 min. The tube was cooled to room temperature, precipitate removed by centrifugation and the clear supernatant assayed for folate. Brain concentrations were derived from cortex and cerebellum.

[4] = Tissue distribution of folates 24 h after oral administration of folate forms to rat pups, with and without FR Ab (Example 3); assay type: in vivo; conditions: for Folate (mean), Cerebellum / Folate (mean), Cerebrum / Folate (mean), Kidney / Folate (mean), Liver: PND 21 rat pups, 4 mg/kg oral, 24 h
Protocol: To determine tissue distribution of orally administered folate forms in young rat pups and study the effect of folate receptor antibodies on this distribution. PND 21 rat pups weighing about 50 g were administered folate forms orally at a dose of 4 mg/kg. Animals were euthanized after 24 h and tissues collected for analyzing total methylfolate in each tissue to provide a measure of normal distribution.

[5] = serum, 4 mg/kg single oral dose, 0.5 hr
[6] = serum, 4 mg/kg single oral dose, 1 hr
[7] = serum, 4 mg/kg single oral dose, 2 hr
[8] = serum, 4 mg/kg single oral dose, 4 hr
[9] = non-pregnant rats, without antibody, 4 mg/kg oral, 24 h
[10] = pregnant rats, + Control IgG, 4 mg/kg oral, 24 h
[11] = pregnant rats, + FRAb, 4 mg/kg oral, 24 h
[12] = pregnant rats, w/o IgG, 4 mg/kg oral, 24 h
[13] = male, Wistar, rat, in vivo, po, 4 mg/kg
[14] = male, Wistar, rat, in vivo, po, 4 mg/kg, 0.5 h
[15] = male, Wistar, rat, in vivo, po, 4 mg/kg, 1 h
[16] = male, Wistar, rat, in vivo, po, 4 mg/kg, 2 h
[17] = male, Wistar, rat, in vivo, po, 4 mg/kg, 4 h

- serum THF and 5-MTHF compared to folinic acid ([1]; especially at one hour): Much better
- THF generation and total uptake compared to 5-methyl-(6S)-THF administration ([1]; serum, 4 mg/kg oral): much greater
- 5-FoTHF [1, 5]: 68.2 ng/mL
- THF [1, 5]: 22.9 ng/mL
- Total Uptake [1, 5]: 252.6 ng/mL
- 5-MTHF ([1]; serum, 4 mg/kg single oral dose, 0.5 hr, D- and L-forms): 161.6 ng/mL
- 5-FoTHF [1, 6]: 97.3 ng/mL
- THF [1, 6]: 35.8 ng/mL
- Total Uptake [1, 6]: 375.0 ng/mL
- 5-MTHF ([1]; serum, 4 mg/kg single oral dose, 1 hr, D- and L-forms): 241.9 ng/mL
- 5-FoTHF [1, 7]: 19.7 ng/mL
- THF [1, 7]: 9.0 ng/mL
- Total Uptake [1, 7]: 162.9 ng/mL
- 5-MTHF ([1]; serum, 4 mg/kg single oral dose, 2 hr, D- and L-forms): 144.1 ng/mL
- 5-FoTHF [1, 8]: 7.0 ng/mL
- THF [1, 8]: 39.1 ng/mL
- Total Uptake [1, 8]: 216.1 ng/mL
- 5-MTHF ([1]; serum, 4 mg/kg single oral dose, 4 hr, D- and L-forms): 173.5 ng/mL
- Total Folates in Serum (total 5-MTHF D- and L- plus folic acid) ([2]; Non-pregnant rats): 27.5
- concentrations of total folates in serum compared to other folate forms ([2]; especially pregnant rats injected with folate receptor antibody): superior concentrations of total folates
- Total Folates in Serum (total 5-MTHF D- and L- plus folic acid) ([2]; pregnant rats, Control Ab + Form): 247.1
- Total Folates in Serum (total 5-MTHF D- and L- plus folic acid) ([2]; pregnant rats, FRAb + Form): 228.8
- Total Folates in Serum (total 5-MTHF D- and L- plus folic acid) ([2]; pregnant rats, Form Only): 88.9
- concentrations of folates in ovary, brain and cerebellum compared to 5-methyl-6S-THF ([3]; non-pregnant rats without folate receptor antibody): much better concentrations of folates
- Total 5-MTHF + PGA in Cerebellum [3, 9]: 8.2
- Total 5-MTHF + PGA in Cortex [3, 9]: 1.5
- Total 5-MTHF + PGA in Kidney [3, 9]: 20.4
- Total 5-MTHF + PGA in Liver [3, 9]: 93.0
- Total 5-MTHF + PGA in Ovary [3, 9]: 9.8
- Total 5-MTHF + PGA in Brain [3, 9]: 4.8
- folate concentrations in placenta and embryo compared to 5-methyl-6S-THF or folinic acid ([3]; pregnant rats without folate receptor antibody): much better folate concentrations
- Total 5-MTHF + PGA in Embryo [3, 10]: 2.8 ng/mg
- Total 5-MTHF + PGA in Kidney [3, 10]: 19.8 ng/mg
- Total 5-MTHF + PGA in Liver [3, 10]: 38.2 ng/mg
- Total 5-MTHF + PGA in Ovary [3, 10]: 7.1 ng/mg
- Total 5-MTHF + PGA in Placenta [3, 10]: 3.3 ng/mg
- Total 5-MTHF + PGA in Brain [3, 10]: 4.8 ng/mg
- Total 5-MTHF + PGA in Embryo [3, 11]: 2.3 ng/mg
- Total 5-MTHF + PGA in Kidney [3, 11]: 14.3 ng/mg
- Total 5-MTHF + PGA in Liver [3, 11]: 39.1 ng/mg
- Total 5-MTHF + PGA in Ovary [3, 11]: 3.2 ng/mg
- Total 5-MTHF + PGA in Placenta [3, 11]: 3.0 ng/mg
- Total 5-MTHF + PGA in Brain [3, 11]: 3.5 ng/mg
- Total 5-MTHF + PGA in Embryo [3, 12]: 7.2 ng/mg
- Total 5-MTHF + PGA in Kidney [3, 12]: 20.2 ng/mg
- Total 5-MTHF + PGA in Liver [3, 12]: 44.8 ng/mg
- Total 5-MTHF + PGA in Ovary [3, 12]: 9.3 ng/mg
- Total 5-MTHF + PGA in Placenta [3, 12]: 9.0 ng/mg
- Total 5-MTHF + PGA in Brain [3, 12]: 2.0 ng/mg
- Folate (mean), Cerebellum ([4]; + FRAb (100 ug IP 24 h prior)): 69.5 ng/mg
- Folate (mean), Cerebrum ([4]; + FRAb (100 ug IP 24 h prior)): 13.2 ng/mg
- Folate (mean), Kidney ([4]; + FRAb (100 ug IP 24 h prior)): 48.7 ng/mg
- Folate (mean), Liver ([4]; + FRAb (100 ug IP 24 h prior)): 133.44 ng/mg
- Folate (mean), Cerebellum ([4]; no FRAb): 93.3 ng/mg
- Folate (mean), Cerebrum ([4]; no FRAb): 15.3 ng/mg
- Folate (mean), Kidney ([4]; no FRAb): 52.1 ng/mg
- Folate (mean), Liver ([4]; no FRAb): 80.0 ng/mg
- change of folates in the brain on antibody administration ([4]; antibody-treated pups vs pups without antibody): The opposite is observed
- folate concentrations in cerebellum and cerebrum compared to 5-methyl-6S-THF ([4]; rat pups with and without the antibody): much higher folate concentrations
SMILES: Nc1nc2c(c(=O)[nH]1)N(C=O)[C@@H](CNc1ccc(C(=O)N[C@@H](CCC(=O)O)C(=O)O)cc1)CN2 [5-formyl-(6S)-tetrahydrofolate]

- concentration at 0.5 h [1, 13]: 42.4 ng/mL
- concentration at 1 h [1, 13]: 236 ng/mL
- concentration at 2 h [1, 13]: 134 ng/mL
- concentration at 4 h [1, 13]: 121 ng/mL
- 5-MTHF [1, 14]: 72.8 ng/mL
- THF [1, 14]: 10.7 ng/mL
- Total Uptake [1, 14]: 126.0 ng/mL
- 5-MTHF [1, 15]: 112.9 ng/mL
- THF [1, 15]: 5.9 ng/mL
- Total Uptake [1, 15]: 354.3 ng/mL
- 5-MTHF [1, 16]: 101.4 ng/mL
- THF [1, 16]: 7.9 ng/mL
- Total Uptake [1, 16]: 243.3 ng/mL
- 5-MTHF [1, 17]: 109.7 ng/mL
- THF [1, 17]: 22.4 ng/mL
- Total Uptake [1, 17]: 252.7 ng/mL
SMILES: Nc1nc2ncc(CNc3ccc(C(=O)N[C@@H](CCC(=O)O)C(=O)O)cc3)nc2c(=O)[nH]1 [Folic Acid, pteroylglutamic acid]
